Reference: patent US7132431B2, “Anti-malarial compounds” (The University of Liverpool, priority 2001, dated 2006)
Where two headings read alike, the source gives them in different places. Values belong to the compound of their own block, whether it stands above or below them.

Legend:
[1] = test system: K1 strain of P. falciparum (chloroquine resistant); test: In vitro antimalarial activity, 48-h [3H]-hypoxanthine incorporation assay, K1 strain; type: cell-based, Plasmodium falciparum
Method: Antimalarial activity. Two strains of P. falciparum were used in this study: (a) The K1 strain which is known to be CQ resistant and (b) the HB3 strain which is sensitive to all antimalarials. Parasites were maintained in continuous culture using the method of Jensen and Trager. (J. Parasitol., 1977, 63, 883-886) Cultures were grown in flasks containing human erythrocytes (2-5%) with parasitemia in the range of 1% to 10% suspended in RPMI 1640 medium supplemented with 25 mM HEPES and 32 mM NaHCO3, and 10% human serum (complete medium). Cultures were gassed with a mixture of 3% O2, 4% CO2 and 93% N2. Antimalarial activity was assessed with an adaption of the 48-h sensitivity assay of Desjardins et al. (Antimicrob. Agents. Chemother., 1979, 16, 710-718.) using [^3H]-hypoxanthine incorporation as an assessment of parasite growth. Stock drug solutions were prepared in 100% dimethylsulphoxide (DMSO) and diluted to the appropriate concentration using complete medium. Assays were performed in sterile 96-well microtitre plates, each plate contained 200—1 of parasite culture (2% parasitemia, 0.5% haematocrit) with or without 10—1 drug dilutions. Each drug was tested in triplicate and parasite growth compared to control wells (which consituted 100% parasite growth). After 24-h incubation at 37° C., 0.5_Ci hypoxanthine was added to each well. Cultures were incubated for a further 24 h before they were harvested onto filter-mats, dried for 1 h at 55° C. and counted using a Wallac 1450 Microbeta Trilux Liquid scintillation and luminescence counter. IC50 values were calculated by interpolation of the probit transformation of the log dose—response curve. In Vivo Testing Protocol Male, random Swiss albino mice weighing 18-22 g were inoculated intraperitoneally with 10^7 parasitised erythrocytes with P. yoelii NS strain. Animals were then dosed daily via two routes (intraparential or oral) for four consecutative days beginning on the day of infection. Compounds were dissolved or suspended in the vechile solution consisting of methanol, phosphate buffered saline and DMSO (2:5:3 v/v).

[2] = test system: HB3 strain of P. falciparum (chloroquine sensitive); test: In vitro antimalarial activity, 48-h [3H]-hypoxanthine incorporation assay, HB3 strain; type: cell-based; settings: Plasmodium falciparum; chloroquine sensitive HB3 isolate, n=4
Method: (§1) Antimalarial activity. Two strains of P. falciparum were used in this study: (a) The K1 strain which is known to be CQ resistant and (b) the HB3 strain which is sensitive to all antimalarials. Parasites were maintained in continuous culture using the method of Jensen and Trager. (J. Parasitol., 1977, 63, 883-886) Cultures were grown in flasks containing human erythrocytes (2-5%) with parasitemia in the range of 1% to 10% suspended in RPMI 1640 medium supplemented with 25 mM HEPES and 32 mM NaHCO3, and 10% human serum (complete medium). Cultures were gassed with a mixture of 3% O2, 4% CO2 and 93% N2. Antimalarial activity was assessed with an adaption of the 48-h sensitivity assay of Desjardins et al. (Antimicrob. Agents. Chemother., 1979, 16, 710-718.) using [^3H]-hypoxanthine incorporation as an assessment of parasite growth. Stock drug solutions were prepared in 100% dimethylsulphoxide (DMSO) and diluted to the appropriate concentration using complete medium. […] Cultures were incubated for a further 24 h before they were harvested onto filter-mats, dried for 1 h at 55° C. and counted using a Wallac 1450 Microbeta Trilux Liquid scintillation and luminescence counter. IC50 values were calculated by interpolation of the probit transformation of the log dose—response curve. […]

[3] = Biliary and urinary excretion and tissue distribution of radioactivity 5 h after i.v. [3H]AQ or [3H]ISQ; type: in vivo, Male Wistar rats; settings: for % of dose accounted for (bile, tissues, plasma, urine): total recovery
Text: Investigation of Biliary and Urinary Excretion of [^3H] AQ and [^3H] ISQ After Administration to Male Wistar Rats. […] The rats were carefully monitored throughout the procedure to ensure that anaesthesia was maintained. A small incision was made in the throat and the trachea was located, via blunt dissection of the surrounding connective tissue. A 1.57 mm (I.D.) polythene tube cannula was inserted and securely fastened. […] A syringe containing saline was attached to the jugular cannula to act as a seal preventing air bubbles from entering the vein. An incision was made along the midline of the abdomen. The common bile duct was located and allowed to dilate before a 0.58 mm (I.D.) cannula was inserted. Control bile was obtained. The penis was ligated, to allow urine to be collected during the experiment. […] DMSO replaced the saline in the jugular cannula to prevent the drug precipitating out of solution during dosing. A 500 μl Hamilton syringe was filled with either [^3H]AQ or [^3H]ISQ (54 μmol/kg, 25 μCi/kg) and connected to the cannula. The radiolabelled compounds were infused via the jugular vein over a period of 30 mins to prevent respiratory depression caused by DMSO. Bile fractions were collected at hourly intervals for 5 h from the start of dosing, All samples were weighed and there weight recorded. After 5 h any remaining urine was aspirated from the bladder and blood was collected via cardiac puncture with a heparinised needle into a heparinised tube. […] Tissues (brain, heart, kidney, liver, lung, spleen and skin) were removed from the animal, rinsed in saline before being placed in vials and weighed. All samples were stored at −80° C. until they were required for analysis. […] Samples were left in darkness overnight to prevent chemiluminescence. Radioactivity was then determined using a Packard 1500 Liquid Scintillation Analyser. Portions of each tissue (50-100 mg) and aliquots of red blood cells (50-60 mg) were taken in duplicate; tissue solubilizer (0.5 ml) was added to each sample and left overnight at 50° C. The samples were cooled to room temperature before being decolourised with hydrogen peroxide (200 μl) and left for 1 h. The mixture was then neutralised with glacial acetic acid (30 μl) and 12 ml of scintillation fluid was added. The mixture was mixed thoroughly and left overnight in the dark. The samples were assayed for radioactivity. (all volumes of chemicals to be added were doubled for solubulizing the red blood cells)

[4] = Radioactivity in plasma and red blood cells during 5 h after dosing; type: in vivo, Male Wistar rats; settings: for average plasma level, % of the dose: throughout the 5 h experiment
Method: The animal was anaesthetised and the jugular vein cannulated as described above. To allow blood samples to be taken regularly, the carotid artery was cannulated with 0.58 mm I.D. polythene tubing. The cannula was attached to a heparinised saline syringe to prevent blood escaping from the cannula and to prevent air bubbles from entering the blood stream. The animals were dosed as described above and the clock was started at the end of the dosing period. Blood samples (300 μl) were collected at 15 mins, 30 mins and hourly post-dosing. Heparinised saline was flushed through the cannula after every blood collection to prevent clotting within the tubing. The saline was allowed to drain out of the cannula prior to every collection point. After the fifth hour sample had been collected, all remaining blood within the rat was allowed to drain from the cannula into a heparinised tube. All samples were […] (4000 rpm for 5 min) immediately after collection and the pellet and supernatant were separated. The volume of the plasma was recorded. The tissues were also removed and weighed all samples were stored at -80° C. until analysed. The active components of the plasma were removed via extraction with ether for LC/MS analysis. […] Samples were left in darkness overnight to prevent chemiluminescence. Radioactivity was then determined using a Packard 1500 Liquid Scintillation Analyser. Portions of each tissue (50-100 mg) and aliquots of red blood cells (50-60 mg) were taken in duplicate; tissue solubilizer (0.5 ml) was added to each sample and left overnight at 50° C. The samples were cooled to room temperature before being decolourised with hydrogen peroxide (200 μl) and left for 1 h. The mixture was then neutralised with glacial acetic acid (30 μl) and 12 ml of scintillation fluid was added. The mixture was mixed thoroughly and left overnight in the dark. The samples were assayed for radioactivity. (all volumes of chemicals to be added were doubled for solubulizing the red blood cells)

[5] = LC/MS and radiochromatographic analysis of urinary, biliary and plasma metabolites; type: in vivo, Male Wistar rats; settings: for biliary metabolite identified (main) / glutathione (GSH) conjugates or metabolites found: rat bile; for biliary metabolite identified (main): i.v.; for glutathione (GSH) conjugates or metabolites found: urine or blood; for main compound or metabolite in plasma: rat plasma ether extracts
Method: After the fifth hour sample had been collected, all remaining blood within the rat was allowed to drain from the cannula into a heparinised tube. All samples were centrifiged (4000 rpm for 5 min) immediately after collection and the pellet and supernatant were separated. The volume of the plasma was recorded. The tissues were also removed and weighed all samples were stored at −80° C. until analysed. The active components of the plasma were removed via extraction with ether for LC/MS analysis.
Analysis of Urinary, Binary and Plasma Metabolites of Male Wistar Rats Dosed with [3H]AQ or [^3H]ISQ.
Our samples were analysed using MassLynx software. Aliquots (50-100 μl) of bile, urine and plasma ether extracts, were eluted from a Zorbax SB-18 column with a slow acetonitrile gradient (10-50% over 30 mins) in ammonium acetate (5.0 mM, pH3.8) at 0.9 ml/min. Two Jasco PU-980 pumps were linked to a mixing module, allowing effluent to mix with scintillation fluid prior to reaching the Flo-One A250 _eta radioactive flow detector or allowing the effluent to be delivered to the Quattro II mass spectrometer. Nebulising and drying gas were delivered at a rate of 13 L/h and 300 L/h respectively. The temperature of the LC/MS interface was 70° C. and the capillary voltage was […]. The extent of fragmentation was modulated via altering the cone voltage.

P. bergheri = test: In vivo activity in the mouse model against P. bergheri; settings: in words
[6] = 24 hour metabolism study, distribution of radioactivity; type: in vivo, Male Wistar rats
Method: [^3H]AQ (54 μmol/kg) was administered i.p to male Wistar rats (200-300 g). Each animal was placed in a wire-bottom metabolism cage with access to food and water. Urine was collected over 24 h, the cage was rinsed with distilled water (10 ml) at the end of the collection period. […] All samples were stored at −80° C. until analysed. Previous ISQ data was obtained for comparison with AQ. […] Samples were left in darkness overnight to prevent chemiluminescence. Radioactivity was then determined using a Packard 1500 Liquid Scintillation Analyser. Portions of each tissue (50-100 mg) and aliquots of red blood cells (50-60 mg) were taken in duplicate; tissue solubilizer (0.5 ml) was added to each sample and left overnight at 50° C. The samples were cooled to room temperature before being decolourised with hydrogen peroxide (200 μl) and left for 1 h. The mixture was then neutralised with glacial acetic acid (30 μl) and 12 ml of scintillation fluid was added. The mixture was mixed thoroughly and left overnight in the dark. The samples were assayed for radioactivity. (all volumes of chemicals to be added were doubled for solubulizing the red blood cells)

P. yoelii NS strain = test: In vivo 4-day test, P. yoelii NS rodent malaria model; set-up: species or system P. yoelii (Swiss albino mice); settings: oral administration, standard 4-day test, repeated twice
Method: as §1

[7] = Table 2, chloroquine resistant K1 Plasmodium falciparum, read-out: IC50
[8] = 5 h after i.v. 54 μmol/kg, mean±s.e.m.
[9] = Plasmodium falciparum, chloroquine resistant K1 isolate, n=4, read-out: IC50
[10] = male, Wistar, rat, in vivo, iv, 5 h
[11] = male, Wistar, rat, in vivo, 24 h

SMILES: CN(C)Cc1ccc(Nc2ccnc3c2=CCC(Cl)C=3)cc1O (stereo not drawn) [ISQ2]
- IC50 [1, 7]: 25.2 nM

SMILES: CCN(CC)Cc1ccc(Nc2ccnc3cc(Cl)ccc23)cc1O [Isoquine, 4-N-(3′-hydroxy-4′-[N,N-diethylaminomethyl])anilino-7-chloroquinoline]
- IC50 [2]: 9 nM
- % of dose excreted into bile [3, 8]: 12.73%
- % of dose recovered in skin [3, 8]: 21.46%
- % of dose remaining in heart [3, 8]: 0.58%
- % of dose remaining in liver [3, 8]: 32.93%
- % of dose remaining in plasma [3, 8]: 0.13%
- increase in liver accumulation compared with AQ ([3]; after 5 h): approximately 10%
- % of dose in tissues ([3]; after 5 h, all tissues): 70.92%
- % of dose accounted for (bile, tissues, plasma, urine) ([3]; after 5 h): 87.17%
- % of dose excreted into urine ([3]; over 5 h after i.v. 54 μmol/kg, mean±s.e.m.): 3.39%
- plasma levels relative to AQ ([4]; over 5 h): 3 fold
- average plasma level, % of the dose [4]: 0.095%
- % of dose in red blood cells, constant level ([4]; throughout the experiment): 0.12%
- formation of toxic or reactive metabolites ([5]; in vivo, in words): does not form toxic metabolites
- biliary metabolite identified (main) ([5]; LC/MS): isoquine aldehyde glucuronide metabolite
- glutathione (GSH) conjugates or metabolites found ([5]; LC/MS): complete lack of glutathione metabolites
- main compound or metabolite in plasma ([5]; LC/MS): parent compound
- main compound excreted in urine ([5]; rat urine, LC/MS): parent compound isoquine
- in vivo activity against P. bergheri (P. bergheri): superior in vivo activity
- % of dose remaining in liver ([6]; after 24 h): 5.48%
- % of dose remaining in skin ([6]; after 24 h): 5.6%
- % of dose remaining in the tissues ([6]; after 24 h, 54 μmol/kg): 13.87%
- % of dose in remaining tissues ([6]; after 24 h, tissues other than liver and skin): 2.97%
- % of dose removed from liver ([6]; difference between 5 h and 24 h): 27.45%
- IC50 [1, 9]: 6 nM
- IC50 [1, 7]: 15.7 nM

SMILES: CCN(CC)CCCC(C)Nc1ccnc2cc(Cl)ccc12 (stereo not drawn) [Chloroquine, chloroquine, reference compound]
- IC50 ([1]; Plasmodium falciparum, K1, read-out: IC50 nM): 190 to 250 nM

SMILES: CCNCc1ccc(Nc2ccnc3c2=CCC(Cl)C=3)cc1O (stereo not drawn) [ISQ1]
- IC50 [1, 7]: 16.5 nM

Second part, led by results:

- IC50 [1, 7]: 22.7 nM
SMILES: CC(C)NCc1ccc(Nc2ccnc3c2=CCC(Cl)C=3)cc1O (stereo not drawn) [ISQ5]

- IC50 [1, 7]: 23.8 nM
SMILES: CCCN(CCC)Cc1ccc(Nc2ccnc3c2=CCC(Cl)C=3)cc1O (stereo not drawn) [ISQ3]

- IC50 [1, 7]: 14.9 nM
SMILES: CCCCN(CCCC)Cc1ccc(Nc2ccnc3c2=CCC(Cl)C=3)cc1O (stereo not drawn) [ISQ4]

- IC50 [2]: 18 nM
- % of dose recovered in skin [3, 8]: 22.12%
- % of dose accounted for (bile, tissues, plasma, urine) ([3]; after 5 h): 78.56%
- % of dose remaining in heart [3, 10]: 0.34%
- % of dose remaining in liver [3, 10]: 20.82%
- % of dose remaining in plasma [3, 10]: 0.04%
- % of dose in red blood cells after 5 h ([4]; after 5 h): 0.09%
- % of dose in red blood cells, initially ([4]; start of 5 h period): 0.12%
- average plasma level, % of the dose [4]: approximately 0.034%
- biliary metabolite identified (main) ([5]; LC/MS): a glutathione conjugate of AQ
- glutathione (GSH) conjugates or metabolites found ([5]; LC/MS): glutathione metabolites were observed
- main compound or metabolite in plasma ([5]; LC/MS): desethylAQ
- % of dose removed from liver ([6]; male, Wistar, rat, in vivo): 13.97%
- % of dose remaining in liver [6, 11]: 6.85%
- % of dose remaining in plasma [6, 11]: 0.02%
- % of dose remaining in skin [6, 11]: 7.18%
- IC50 [1, 9]: 25 nM
SMILES: CCN(CC)Cc1cc(Nc2ccnc3cc(Cl)ccc23)ccc1O [amodiaquine, reference compound]
- ED50 (P. yoelii NS strain; Plasmodium yoelii, in Mus musculus, po, 96 h, read-out: ED50): 7.9 mg/kg
- ED50 (P. yoelii NS strain): 7.4 mg/kg
